Results taken from PubChem BioAssay (NCI).
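Cells were grown in 96-well plates and exposed to each compound for 48 hours at five concentrations; endpoints were interpolated linearly between bracketing concentrations, or set to the highest concentration if not reached. Definition used: TGI = concentration required for complete inhibition of growth.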

Legend:
Assay in all cases: NCI-60 cell line screen, 48 h
[1] = test system: 786-0 renal
[2] = test system: A498 renal
[3] = test system: A549 NSCLC
[4] = test system: ACHN renal
[5] = test system: BT-549 breast
[6] = test system: CAKI-1 renal
[7] = test system: CCRF-CEM leukemia
[8] = test system: COLO 205 colon
[9] = test system: DU-145 prostate
[10] = test system: EKVX NSCLC
[11] = test system: HCC-2998 colon
[12] = test system: HCT-116 colon
[13] = test system: HCT-15 colon
[14] = test system: HL-60(TB) leukemia
[15] = test system: HOP-62 NSCLC
[16] = test system: HOP-92 NSCLC
[17] = test system: HT29 colon
[18] = test system: IGROV1 ovarian
[19] = test system: K-562 leukemia
[20] = test system: KM12 colon
[21] = test system: M14 melanoma
[22] = test system: MALME-3M melanoma
[23] = test system: MCF7 breast
[24] = test system: MDA-MB-231 breast
[25] = test system: MDA-MB-435
[26] = test system: MDA-N
[27] = test system: MOLT-4 leukemia
[28] = test system: NCI-H226 lung
[29] = test system: NCI-H23 lung
[30] = test system: NCI-H460 lung
[31] = test system: NCI-H522 lung
[32] = test system: NCI/ADR-RES ovarian
[33] = test system: OVCAR-3 ovarian
[34] = test system: OVCAR-4 ovarian
[35] = test system: OVCAR-5 ovarian
[36] = test system: OVCAR-8 ovarian
[37] = test system: PC-3 prostate
[38] = test system: RPMI-8226 leukemia
[39] = test system: RXF 393 renal
[40] = test system: SF-268 CNS
[41] = test system: SF-295 CNS
[42] = test system: SF-539 CNS
[43] = test system: SK-MEL-2 melanoma
[44] = test system: SK-MEL-28 melanoma
[45] = test system: SK-OV-3 ovarian
[46] = test system: SN12C renal
[47] = test system: SNB-19 CNS
[48] = test system: SR leukemia
[49] = test system: SW-620 colon
[50] = test system: T-47D breast
[51] = test system: U251 CNS
[52] = test system: UACC-257 melanoma
[53] = test system: UACC-62 melanoma
[54] = test system: UO-31 renal
[55] = test system: LOX IMVI melanoma
[56] = test system: SK-MEL-5 melanoma
[57] = test system: SNB-75 CNS
[58] = test system: TK-10 renal
[59] = test system: HS 578T breast

Measured: TGI

CC1(C)COC(c2ccccc2-c2ccccc2)=N1
not listed: [55] | [56] | [57] | [58] | [59]
> 100 µM: all other assays above

COC(=O)C1=CC(=O)OC1(OO)c1ccc(Br)cc1 (stereo unspecified)
not listed: [2] | [15] | [38] | [40] | [59]
> 100 µM: all other assays above

C[Si](C)(C)CNC(=O)OCc1ccccc1
72.4 µM: [50]
not listed: [22] | [27] | [39] | [59]
> 100 µM: all other assays above

COc1cccc(-c2nc(-c3cnccn3)n(C3OC(CO)C(O)C3O)n2)c1 (stereo unspecified)
not listed: [2] | [4] | [6] | [22] | [28] | [38] | [39] | [43] | [59]
> 100 µM: all other assays above

Nc1cnc(Nc2cccc3ccccc23)o1
not listed: [5] | [16] | [27] | [35] | [38] | [48]
> 10 µM: all other assays above
